Where “and” joins values, the source holds several entries; their conditions need not be identical. Equal values may be shown once.
What was measured:
[1] = biological target: T1, FIH (Homo sapiens, UniProt Q9NWT6); test: FIH steady-state kinetic parameters (SPE-MS, initial hydroxylation rates); format: biochemical; design: slope of initial reaction rate: unit not given here
Method in brief: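 FIH-catalysed CA1-20 peptide hydroxylation with varied 2OG or 2OG derivative, 20 μM ammonium iron(II) sulfate plus L-ascorbic acid, in 50 mM Tris, 50 mM NaCl, pH 7.5, 20 °C, monitored by SPE-MS (~1 sample/40 s). Initial rates fitted to Michaelis–Menten for vapp and Kapp; independent triplicates.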

[2] = biological target: T1, FIH; test: Competition assay in a single reaction vessel, FIH-catalyzed hydroxylation (SPE-MS); format: biochemical

T1 sequence (Q9NWT6 whole entry): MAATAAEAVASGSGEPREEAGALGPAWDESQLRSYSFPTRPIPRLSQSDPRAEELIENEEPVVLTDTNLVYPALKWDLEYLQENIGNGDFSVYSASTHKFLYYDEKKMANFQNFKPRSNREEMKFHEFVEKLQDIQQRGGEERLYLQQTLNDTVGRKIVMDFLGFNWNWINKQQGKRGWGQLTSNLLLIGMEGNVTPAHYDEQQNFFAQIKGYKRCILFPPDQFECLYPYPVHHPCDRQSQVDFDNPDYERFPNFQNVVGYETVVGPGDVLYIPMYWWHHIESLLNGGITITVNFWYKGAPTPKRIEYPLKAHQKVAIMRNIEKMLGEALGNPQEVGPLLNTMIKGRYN

## CC(CC(=O)C(=O)O)C(=O)O (stereo not shown) [compound 12, 4-methyl-2OG]
[1]; 0.25 uM compound 12, time 0.699833 min
  SPE-MS determined concentration of hydroxylated HIF-1a peptide: 0.04437 µM and 0.04741 µM and 0.03831 µM
[1]; 0.25 uM compound 12, time 2.098 min
  SPE-MS determined concentration of hydroxylated HIF-1a peptide: 0.08198 µM and 0.1152 µM and 0.1017 µM
[1]; 0.5 uM compound 12, time 0.699833 min
  SPE-MS determined concentration of hydroxylated HIF-1a peptide: 0.06422 µM and 0.08062 µM and 0.07548 µM
[1]; 0.5 uM compound 12, time 2.098 min
  SPE-MS determined concentration of hydroxylated HIF-1a peptide: 0.1727 µM and 0.153 µM and 0.1556 µM
[1]; 0.5 uM compound 12, time 2.797 min
  SPE-MS determined concentration of hydroxylated HIF-1a peptide: 0.211 µM
[1]; 1 uM compound 12, time 0.699833 min
  SPE-MS determined concentration of hydroxylated HIF-1a peptide: 0.1124 µM and 0.1213 µM and 0.1053 µM
[1]; 1 uM compound 12, time 2.098 min
  SPE-MS determined concentration of hydroxylated HIF-1a peptide: 0.2072 µM and 0.2617 µM and 0.2659 µM
[1]; 1 uM compound 12, time 2.797 min
  SPE-MS determined concentration of hydroxylated HIF-1a peptide: 0.2567 µM and 0.3212 µM and 0.319 µM
[1]; 2 uM compound 12, time 0.699833 min
  SPE-MS determined concentration of hydroxylated HIF-1a peptide: 0.1658 µM and 0.1554 µM and 0.162 µM
[1]; 2 uM compound 12, time 2.098 min
  SPE-MS determined concentration of hydroxylated HIF-1a peptide: 0.3451 µM and 0.3558 µM and 0.3835 µM
[1]; 2 uM compound 12, time 2.797 min
  SPE-MS determined concentration of hydroxylated HIF-1a peptide: 0.4027 µM and 0.4334 µM and 0.458 µM
[1]; 4 uM compound 12, time 0.699833 min
  SPE-MS determined concentration of hydroxylated HIF-1a peptide: 0.2736 µM and 0.2242 µM and 0.2062 µM
[1]; 4 uM compound 12, time 2.098 min
  SPE-MS determined concentration of hydroxylated HIF-1a peptide: 0.6118 µM and 0.4979 µM and 0.4845 µM
[1]; 4 uM compound 12, time 2.797 min
  SPE-MS determined concentration of hydroxylated HIF-1a peptide: 0.7774 µM and 0.6268 µM and 0.6241 µM
[1]; 8 uM compound 12, time 0 min
  SPE-MS determined concentration of hydroxylated HIF-1a peptide: 0.06164 µM and 0.06905 µM and 0.05066 µM
[1]; 8 uM compound 12, time 0.699833 min
  SPE-MS determined concentration of hydroxylated HIF-1a peptide: 0.2593 µM and 0.272 µM and 0.2286 µM
[1]; 8 uM compound 12, time 2.098 min
  SPE-MS determined concentration of hydroxylated HIF-1a peptide: 0.6058 µM and 0.6256 µM and 0.5278 µM
[1]; 8 uM compound 12, time 2.797 min
  SPE-MS determined concentration of hydroxylated HIF-1a peptide: 0.7712 µM and 0.7937 µM and 0.6846 µM
[1]; 16 uM compound 12, time 0 min
  SPE-MS determined concentration of hydroxylated HIF-1a peptide: 0.09407 µM and 0.05485 µM and 0.06025 µM
[1]; 16 uM compound 12, time 0.699833 min
  SPE-MS determined concentration of hydroxylated HIF-1a peptide: 0.2985 µM and 0.2562 µM and 0.2621 µM
[1]; 16 uM compound 12, time 2.098 min
  SPE-MS determined concentration of hydroxylated HIF-1a peptide: 0.6815 µM and 0.5982 µM and 0.6264 µM
[1]; 16 uM compound 12, time 2.797 min
  SPE-MS determined concentration of hydroxylated HIF-1a peptide: 0.848 µM and 0.7909 µM and 0.7891 µM
[1]; 32 uM compound 12, time 0 min
  SPE-MS determined concentration of hydroxylated HIF-1a peptide: 0.0933 µM and 0.07278 µM and 0.06334 µM
[1]; 32 uM compound 12, time 0.699833 min
  SPE-MS determined concentration of hydroxylated HIF-1a peptide: 0.2746 µM and 0.2712 µM and 0.2731 µM
[1]; 32 uM compound 12, time 2.098 min
  SPE-MS determined concentration of hydroxylated HIF-1a peptide: 0.594 µM and 0.6472 µM and 0.6437 µM
[1]; 32 uM compound 12, time 2.797 min
  SPE-MS determined concentration of hydroxylated HIF-1a peptide: 0.7489 µM and 0.8116 µM and 0.8049 µM
[1]; CA1-20, 0.25 μM 12
  slope of initial reaction rate: 0.003176 and 0.003306
[1]; CA1-20, 0.5 μM 12
  slope of initial reaction rate: 0.006776 and 0.007676 and 0.008102
[1]; CA1-20, 1 μM 12
  slope of initial reaction rate: 0.01054 and 0.007937 and 0.01116
[1]; CA1-20, 2 μM 12
  slope of initial reaction rate: 0.01217 and 0.0142 and 0.01263
[1]; CA1-20, 4 μM 12
  slope of initial reaction rate: 0.01597 and 0.01096 and 0.0129
[1]; CA1-20, 8 μM 12
  slope of initial reaction rate: 0.01648 and 0.01721 and 0.01973
[1]; HIF-1a788-822, 0.25 μM 12
  slope of initial reaction rate: 0.000487 and 0.000839 and 0.000746
[1]; HIF-1a788-822, 0.5 μM 12
  slope of initial reaction rate: 0.000918 and 0.001031 and 0.00127
[1]; HIF-1a788-822, 1 μM 12
  slope of initial reaction rate: 0.001321 and 0.001828 and 0.001913
[1]; HIF-1a788-822, 2 μM 12
  slope of initial reaction rate: 0.00207 and 0.002424 and 0.002687
[1]; HIF-1a788-822, 4 μM 12
  slope of initial reaction rate: 0.004223 and 0.003389 and 0.00353
[1]; HIF-1a788-822, 8 μM 12
  slope of initial reaction rate: 0.004209 and 0.004298 and 0.003737
[1]; HIF-1a788-822, 16 μM 12
  slope of initial reaction rate: 0.004508 and 0.004326 and 0.004345
[1]; HIF-1a788-822, 32 μM 12
  slope of initial reaction rate: 0.003886 and 0.004421 and 0.004419
[2]; Fig 2e, 20 μM 12 and 100 μM 2OG
  FIH-catalyzed CA1–20 conversion: ~ 90%
[2]; Fig 2e, 20 μM 12 and 100 μM 2OG, FIH, 0 min
  substrate hydroxylation (% conversion): 15.3987 and 14.8576 and 13.209
[2]; Fig 2e, 20 μM 12 and 100 μM 2OG, FIH, 0.237833 min
  substrate hydroxylation (% conversion): 27.0539 and 26.3778 and 23.9445
[2]; Fig 2e, 20 μM 12 and 100 μM 2OG, FIH, 0.478833 min
  substrate hydroxylation (% conversion): 35.9286 and 35.8922 and 32.7293
[2]; Fig 2e, 20 μM 12 and 100 μM 2OG, FIH, 0.717 min
  substrate hydroxylation (% conversion): 45.1159 and 43.9873 and 41.1347
[2]; Fig 2e, 20 μM 12 and 100 μM 2OG, FIH, 0.956333 min
  substrate hydroxylation (% conversion): 51.8274
[2]; Fig 2e, 20 μM 12 and 100 μM 2OG, FIH, 1.43767 min
  substrate hydroxylation (% conversion): 63.7405 and 62.295 and 59.0531
[2]; Fig 2e, 20 μM 12 and 100 μM 2OG, FIH, 1.67667 min
  substrate hydroxylation (% conversion): 68.2711 and 66.7748 and 63.7338
[2]; Fig 2e, 20 μM 12 and 100 μM 2OG, FIH, 1.918 min
  substrate hydroxylation (% conversion): 71.9325 and 70.2648 and 67.9993
[2]; Fig 2e, 20 μM 12 and 100 μM 2OG, FIH, 2.15883 min
  substrate hydroxylation (% conversion): 75.384 and 73.508 and 70.5367
[2]; Fig 2e, 20 μM 12 and 100 μM 2OG, FIH, 2.6405 min
  substrate hydroxylation (% conversion): 81.0929 and 78.2797 and 76.6153
[2]; Fig 2e, 20 μM 12 and 100 μM 2OG, FIH, 2.88117 min
  substrate hydroxylation (% conversion): 82.6978 and 80.7392 and 78.6776
[2]; Fig 2e, 20 μM 12 and 100 μM 2OG, FIH, 3.12267 min
  substrate hydroxylation (% conversion): 85.0838 and 82.5241 and 80.8532
[2]; Fig 2e, 20 μM 12 and 100 μM 2OG, FIH, 3.36583 min
  substrate hydroxylation (% conversion): 85.9652 and 84.4207 and 82.727
[2]; Fig 2e, 20 μM 12 and 100 μM 2OG, FIH, 3.60733 min
  substrate hydroxylation (% conversion): 87.7923 and 85.7936 and 83.2563
[2]; Fig 2e, 20 μM 12 and 100 μM 2OG, FIH, 3.849 min
  substrate hydroxylation (% conversion): 88.932 and 84.1653 and 80.7905
[2]; Fig 2d, 20 μM 12, FIH, 0 min
  substrate hydroxylation (% conversion): 8.164 and 7.161 and 7.808
[2]; Fig 2d, 20 μM 12, FIH, 0.707167 min
  substrate hydroxylation (% conversion): 31.5759 and 26.6674 and 29.4313
[2]; Fig 2d, 20 μM 12, FIH, 1.41317 min
  substrate hydroxylation (% conversion): 48.4989 and 42.8597 and 46.6007
[2]; Fig 2d, 20 μM 12, FIH, 2.12133 min
  substrate hydroxylation (% conversion): 61.9239 and 55.8625 and 59.591
[2]; Fig 2d, 20 μM 12, FIH, 2.822 min
  substrate hydroxylation (% conversion): 71.1548 and 65.8729 and 69.0603
[2]; Fig 2d, 20 μM 12, FIH, 3.52117 min
  substrate hydroxylation (% conversion): 77.6139 and 72.8151 and 76.4316
[2]; Fig 2d, 20 μM 12, FIH, 4.22083 min
  substrate hydroxylation (% conversion): 82.6095 and 78.8355 and 81.4405
[2]; Fig 2d, 20 μM 12, FIH, 4.9205 min
  substrate hydroxylation (% conversion): 86.3253 and 83.0223 and 85.6621
[2]; Fig 2d, 20 μM 12, FIH, 5.62167 min
  substrate hydroxylation (% conversion): 89.1149 and 86.1539 and 88.6579
[2]; Fig 2d, 20 μM 12, FIH, 6.3215 min
  substrate hydroxylation (% conversion): 91.4092 and 88.7795 and 90.8352
[2]; Fig 2d, 20 μM 12, FIH, 7.02117 min
  substrate hydroxylation (% conversion): 93.1171 and 89.921 and 92.1057
[2]; Fig 2d, 20 μM 12, FIH, 7.724 min
  substrate hydroxylation (% conversion): 94.3469 and 91.6232 and 93.2231
[2]; Fig 2d, 20 μM 12, FIH, 8.42383 min
  substrate hydroxylation (% conversion): 95.3806 and 92.9188 and 94.5877
[2]; Fig 2d, 20 μM 12, FIH, 9.1255 min
  substrate hydroxylation (% conversion): 96.194 and 94.1363 and 95.5545
[2]; Fig 2d, 20 μM 12, FIH, 9.83 min
  substrate hydroxylation (% conversion): 97.3851 and 94.9972 and 96.1755
[2]; Fig 2d, 20 μM 12, FIH, 10.5315 min
  substrate hydroxylation (% conversion): 98.7917 and 94.9441 and 95.9828
[2]; Fig 2d, 20 μM 12, after ~5 min
  FIH-catalyzed CA1–20 hydroxylation: ~ 90%
